Counter-ions that a name gives are not always drawn. Like-named read-outs stand apart in the source and are kept apart here.
Test system: SMN2 promoter
Assay: SMN2 promoter assay in NSC-34 cells (β-lactamase reporter)
Format: cell-based, mouse
Source text: All compounds were screened using an in vitro based SMN2 promoter assay. We used NSC-34 cells, a hybrid cell line between mouse spinal cord cells and mouse neuroblastoma cells. NSC-34 cells harbor an expression plasmid containing a 3.4 kb promoter fragment of the SMN2 gene driving β-lactamase expression.
[…] […] CCF2-AM diffuses across the plasma membrane and is converted into an active β-lactamase substrate by cytoplasmic esterase. […] The fold induction is proportional to the extent of β-lactamase produced and in turn proportional to SMN2 promoter activation for a given compound relative to vehicle (DMSO) control. […] These values are used to rank activities of the compounds and derive structure activity relationship.

[1] = Mus musculus, Table 1, SMN2 promoter driving β-lactamase, 12 point dose curve, read-out: Promoter Assay EC50
[2] = Table 1, SMN2 promoter driving β-lactamase, 12 point dose curve, read-out: Promoter Assay EC50

SMILES	EC50 [2] [nM]	also measured
CC(C)(C)OC(=O)N1CCN(c2cccc3nc(N)nc(N)c23)CC1 [Examplc-219, 4-(2,4-Diaminoquinazolin-5-yl)piperazine-1-carboxylic acid tert-butyl ester]	–	EC50 (Mus musculus, Table 4, SMN2 promoter driving β-lactamase, read-out: Promoter Assay EC50 for 2391.003C(P)): 1000 to 5000 nM
Nc1nc(N)c2c(OCC3CC[N+]([O-])(Cc4ccccc4F)CC3)cccc2n1 (centres unmarked) [Examplc-221]	–	EC50 (Mus musculus, Table 6, SMN2 promoter driving β-lactamase, read-out: Promoter Assay EC50): 1000 to 5000 nM
Nc1nc(N)c2c(OCC3CCN(Cc4ccc(Cl)cc4)CC3)cccc2n1 [Example-004, 5-[1-(4-Chlorobenzyl)piperidin-4-ylmethoxy]quinazoline-2,4-diamine hydrochloride]	–	EC50 [1]: < 1000 nM
Nc1nc(N)c2c(OCC3CCN(Cc4cccc5ccccc45)CC3)cccc2n1 [Example-005]	< 1000	–
Nc1nc(N)c2c(OCC3CCN(Cc4ccc(F)c(F)c4)CC3)cccc2n1 [Example-011, 5-[1-(3,4-Difluorobenzyl)piperidin-4-ylmethoxy]quinazoline-2,4-diamine]	–	EC50 [1]: < 1000 nM
Nc1nc(N)c2c(OCC3CCN(C(=O)c4ccccc4F)CC3)cccc2n1 [Example-013, [4-(2,4-Diaminoquinazolin-5-yloxymethyl)piperidin-1-yl](2-fluorophenyl)methanone]	–	EC50 [1]: < 1000 nM
Nc1nc(N)c2c(OCC3CCN(C(=O)c4ccc5ccccc5c4)CC3)cccc2n1 [Example-018, [4-(2,4-Diaminoquinazolin-5-yloxymethyl)piperidin-1-yl]naphthalen-2-yl-methanone]	–	EC50 [1]: < 1000 nM
Cc1ccccc1C(=O)N1CCC(COc2cccc3nc(N)nc(N)c23)CC1 [Example-019, [4-(2,4-Diaminoquinazolin-5-yloxymethyl)piperidin-1-yl]-o-tolylmethanone]	–	EC50 [1]: < 1000 nM
Cc1cccc(C(=O)N2CCC(COc3cccc4nc(N)nc(N)c34)CC2)c1 [Example-020, [4-(2,4-Diaminoquinazolin-5-yloxymethyl)piperidin-1-yl]-m-tolylmethanone]	–	EC50 [1]: < 1000 nM
Cc1ccc(C(=O)N2CCC(COc3cccc4nc(N)nc(N)c34)CC2)cc1 [Example-021, [4-(2,4-Diaminoquinazolin-5-yloxymethyl)piperidin-1-yl]-p-tolylmethanone]	–	EC50 [1]: < 1000 nM
Nc1nc(N)c2c(OCC3CCN(C(=O)c4ccc(F)cc4F)CC3)cccc2n1 [Example-022, [4-(2,4-Diaminoquinazolin-5-yloxymethyl)piperidin-1-yl]-(2,4-difluorophenyl)methanone]	–	EC50 [1]: < 1000 nM
Nc1nc(N)c2c(OCC3CCN(C(=O)c4ccc(F)c(F)c4)CC3)cccc2n1 [Example-023, [4-(2,4-Diaminoquinazolin-5-yloxymethyl)piperidin-1-yl]-(3,4-difluorophenyl)methanone]	–	EC50 [1]: < 1000 nM
Nc1nc(N)c2c(OCC3(S(=O)(=O)c4cccc(Cl)c4)CCNCC3)cccc2n1 [Example-026, 5-[4-(3-Chlorobenzenesulfonyl)piperidin-4-ylmethoxy]quinazoline-2,4-diamine]	–	EC50 [1]: < 1000 nM
Nc1nc(N)c2c(OCC3(S(=O)(=O)c4ccccc4Cl)CCNCC3)cccc2n1 [Example-027, 5-[4-(2-Chlorobenzenesulfonyl)piperidin-4-ylmethoxy]quinazoline-2,4-diamine]	–	EC50 [1]: < 1000 nM
Nc1nc(N)c2c(OCC3CCN(S(=O)(=O)c4ccc(Cl)cc4)CC3)cccc2n1 [Example-028]	< 1000	–
Nc1nc(N)c2c(OCC3CCN(S(=O)(=O)c4cccc5ccccc45)CC3)cccc2n1 [Example-029]	< 1000	–
Nc1nc(N)c2c(OCC3CCN(S(=O)(=O)c4ccc5ccccc5c4)CC3)cccc2n1 [Example-030]	< 1000	–
Cc1ccccc1S(=O)(=O)N1CCC(COc2cccc3nc(N)nc(N)c23)CC1 [Example-031]	< 1000	–
Cc1cccc(S(=O)(=O)N2CCC(COc3cccc4nc(N)nc(N)c34)CC2)c1 [Example-032, 5-[1-(Toluene-3-sulfonyl)piperidin-4-ylmethoxy]quinazoline-2,4-diamine]	–	EC50 [1]: < 1000 nM
Cc1ccc(S(=O)(=O)N2CCC(COc3cccc4nc(N)nc(N)c34)CC2)cc1 [Example-033]	< 1000	–
Nc1nc(N)c2c(OCC3(S(=O)(=O)c4ccc(F)c(F)c4)CCNCC3)cccc2n1 [Example-035, 5-[4-(3,4-Difluorobenzenesulfonyl)-piperidin-4-ylmethoxy]quinazoline-2,4-diamine]	–	EC50 [1]: < 1000 nM
CC(C)(C)OC(=O)N1CCC(COc2cccc3nc(N)nc(N)c23)CC1 [Example-037]	< 1000	–

SMILES	EC50 [2] [nM]	also measured
Nc1nc(N)c2c(OCC3CCN(C(=O)c4ccc(I)cc4)CC3)cccc2n1 [Example-040]	< 1000	–
Nc1nc(N)c2c(OCC3CCN(C(=O)c4ccccc4I)CC3)cccc2n1 [Example-041]	< 1000	–
Nc1nc(N)c2c(OCC3CCN(Cc4ccc(I)cc4)CC3)cccc2n1 [Example-044]	< 1000	–
COc1ccc(CC(=O)N2CCC(COc3cccc4nc(N)nc(N)c34)CC2)cc1 [Example-045]	1000 to 5000	–
Nc1nc(N)c2c(OCC3CCN(C(=O)c4cccc(F)c4)CC3)cccc2n1 [Example-046]	< 1000	–
CS(=O)(=O)c1ccc(CN2CCC(COc3cccc4nc(N)nc(N)c34)CC2)cc1 [Example-047]	< 1000	–
CC(C)(C)C(=O)N1CCC(COc2cccc3nc(N)nc(N)c23)CC1 [Example-048]	< 1000	–
CC1CCC(C(=O)N2CCC(COc3cccc4nc(N)nc(N)c34)CC2)CC1 (centres unmarked) [Example-049]	< 1000	–
Nc1nc(N)c2c(OCC3CCN(C(=O)c4ccc(Cl)nc4)CC3)cccc2n1 [Example-051]	< 1000	–
Nc1nc(N)c2c(OCC3CCN(C(=O)c4cc(F)ccc4F)CC3)cccc2n1 [Example-052]	< 1000	–
Nc1nc(N)c2c(OCC3CCN(C(=O)c4cc(Cl)cc(Cl)c4)CC3)cccc2n1 [Example-054]	< 1000	–
Nc1nc(N)c2c(OCC3CCN(C(=O)c4cccs4)CC3)cccc2n1 [Example-055]	< 1000	–
COc1ccc(C(=O)N2CCC(COc3cccc4nc(N)nc(N)c34)CC2)cc1 [Example-056]	< 1000	–
Nc1nc(N)c2c(OCC3CCN(C(=O)c4ccco4)CC3)cccc2n1 [Example-057]	< 1000	–
Cc1cc(C(=O)N2CCC(COc3cccc4nc(N)nc(N)c34)CC2)no1 [Example-059]	< 1000	–
Nc1nc(N)c2c(OCC3CCN(C(=O)c4ccc(Cl)cc4Cl)CC3)cccc2n1 [Example-060]	< 1000	–
Nc1nc(N)c2c(OCC3CCN(C(=O)c4ccccc4OC(F)(F)F)CC3)cccc2n1 [Example-061]	< 1000	–
Nc1nc(N)c2c(OCC3CCN(C(=O)c4ccc(F)cc4)CC3)cccc2n1 [Example-062]	< 1000	–
Nc1nc(N)c2c(OCC3CCN(C(=O)c4ccc(OC(F)(F)F)cc4)CC3)cccc2n1 [Example-063]	< 1000	–
CCc1ccc(C(=O)N2CCC(COc3cccc4nc(N)nc(N)c34)CC2)cc1 [Example-064]	< 1000	–
Nc1nc(N)c2c(OCC3CCN(C(=O)CSc4ccccc4)CC3)cccc2n1 [Example-070]	< 1000	–
Nc1nc(N)c2c(OCC3CCN(C(=O)c4ccc(C(F)(F)F)nc4)CC3)cccc2n1 [Example-071]	< 1000	–

SMILES	EC50 [2] [nM]	also measured
CS(=O)(=O)N1CCC(COc2cccc3nc(N)nc(N)c23)CC1 [Example-072]	< 1000	–
CC(C)(C)c1ccc(S(=O)(=O)N2CCC(COc3cccc4nc(N)nc(N)c34)CC2)cc1 [Example-073]	< 1000	–
Nc1nc(N)c2c(OCC3CCN(S(=O)(=O)c4ccc(Cl)s4)CC3)cccc2n1 [Example-074]	< 1000	–
Nc1nc(N)c2c(OCC3CCN(S(=O)(=O)c4cccs4)CC3)cccc2n1 [Example-075]	< 1000	–
Cc1noc(C)c1S(=O)(=O)N1CCC(COc2cccc3nc(N)nc(N)c23)CC1 [Example-076]	< 1000	–
Nc1nc(N)c2c(OCC3CCN(S(=O)(=O)c4cccc(F)c4)CC3)cccc2n1 [Example-077]	< 1000	–
Nc1nc(N)c2c(OCC3CCN(S(=O)(=O)c4cccc(Cl)c4Cl)CC3)cccc2n1 [Example-078]	< 1000	–
Cc1ccc(F)cc1S(=O)(=O)N1CCC(COc2cccc3nc(N)nc(N)c23)CC1 [Example-079]	< 1000	–
COc1ccc(Cl)cc1S(=O)(=O)N1CCC(COc2cccc3nc(N)nc(N)c23)CC1 [Example-080]	< 1000	–
Cc1c(Cl)cccc1S(=O)(=O)N1CCC(COc2cccc3nc(N)nc(N)c23)CC1 [Example-081]	< 1000	–
Nc1nc(N)c2c(OCC3CCN(S(=O)(=O)c4ccc(C(F)(F)F)cc4)CC3)cccc2n1 [Example-082]	< 1000	–
COc1ccc(Br)cc1S(=O)(=O)N1CCC(COc2cccc3nc(N)nc(N)c23)CC1 [Example-083]	< 1000	–
Nc1nc(N)c2c(OCC3CCN(S(=O)(=O)c4ccc(Cl)cc4Cl)CC3)cccc2n1 [Example-084]	< 1000	–
Nc1nc(N)c2c(OCC3CCN(S(=O)(=O)c4c(Cl)cccc4Cl)CC3)cccc2n1 [Example-085]	< 1000	–
CS(=O)(=O)c1ccc(S(=O)(=O)N2CCC(COc3cccc4nc(N)nc(N)c34)CC2)cc1 [Example-086]	< 1000	–
Nc1nc(N)c2c(OCC3CCN(S(=O)(=O)c4ccccc4C(F)(F)F)CC3)cccc2n1 [Example-087]	< 1000	–
Nc1nc(N)c2c(OCC3CCN(S(=O)(=O)c4ccc(Cl)c(Cl)c4)CC3)cccc2n1 [Example-088]	< 1000	–
CC(C)c1ccc(S(=O)(=O)N2CCC(COc3cccc4nc(N)nc(N)c34)CC2)cc1 [Example-089]	< 1000	–
CC(=O)Nc1ccc(S(=O)(=O)N2CCC(COc3cccc4nc(N)nc(N)c34)CC2)cc1 [Example-090]	< 1000	–
Cc1noc(C)c1CN1CCC(COc2cccc3nc(N)nc(N)c23)CC1 [Example-091]	< 1000	–
Nc1nc(N)c2c(OCC3CCN(Cc4cc(Cl)nc(Cl)c4)CC3)cccc2n1 [Example-093]	< 1000	–

Reference: US7985755B2, “2,4-diaminoquinazolines for spinal muscular atrophy” (Families of Spinal Muscular Atrophy, priority 2006, dated 2011)
